In patent publication US20240271127A1, “METHODS OF ENHANCING AND EXPEDITING EXPRESSION OF ANTIBODIES” (Aridis Pharmaceuticals, Inc., priority 2019, published 2024):

System: UPR pathway in CHO-K1 cell line expressing Ire1-1642G and Fv2E-PERK
Assay: Drug-inducible UPR pathway activation, RT-qPCR of UPR gene mRNA transcripts
Type: cell-based, Chinese hamster
Conditions: CHO-K1 transfected with Ire1-1642G and Fv2E-PERK in combination; 1NM-PP1 0, 10 or 50 μM added 24 hours post-transfection
Procedure: In FIG. 12A drug-inducible activation of UPR pathway promotes ER expansion signaling pathways in a dosage-dependent manner. […] At 24 hours post-transfection, cells were treated with varying concentrations of 1NM-PP1 (0, 10, or 50 μM). mRNA transcripts of UPR genes were measured by RT-qPCR of unspliced Xbp1 (Xbp1u), spliced Xbp1 (Xbp1s), Chop, Gadd34, and Atf4. […]
Reverse transcription real-time quantitative polymerase chain reaction (RT-qPCR). […] Quantification was by standard ddCt method.
1NM-PP1 drug induction in CHO cells: Stable CHO cell lines expressing Ire1a 1642G or Fv2E-PERK alone or in combination were induced with 10 or 50 µM of 1NM-PP1. Gene expression measured by RT-qPCR was performed at 24h post-drug induction.
A drug inducible UPR activation pathway was constructed in a CHO-K1 cell line transfected with plasmid containing constitutive promoter expressing Ire1-1642G or Fv2E-PERK alone or in combination. At 24 hours post-transfection, cells were treated with varying concentrations of 1NM-PP1 (0, 10 or 50 μM). mRNA transcripts of UPR genes were measured by RT-qPCR of unspliced Xbp1 (Xbp1u), spliced Xbp1 (Xbp1s), Chop, Gadd34, and Atf4.

`CC(C)(C)n1nc(Cc2cccc3ccccc23)c2c(N)ncnc21` [1NM-PP1] was tested, and the “mRNA transcripts of UPR genes Xbp1u, CHOP, Gadd34 and Atf4 (RT-qPCR)” value was “increased at higher concentrations”.
